Literature values, collected in patent US9044417B2, “Mineral, nutritional, cosmetic, pharmaceutical, and agricultural compositions and methods for producing the same” (Core Intellectual Properties Holdings, LLC, priority 2003, dated 2015).

Details: aqueous solutions of glycolic acid, pH=3.0; general statement for comparison

sting or burning when applied to freshly shaven skin: will sting or burn
SMILES: O=C(O)CO [glycolic acid]
